From US20250289789A1, “REVERSIBLE LYSINE COVALENT MODIFIERS OF CDK2 AND USES THEREOF” (Terremoto Biosciences, Inc., priority 2023, published 2025)
Read-outs that look alike come from different tables or passages of the source.

What was measured:
Assay type in all cases: cell-based
[1] = target: T1, CDK1-NanoLuc fusion with CCNB1 in 293T or 293 cells (Homo sapiens, UniProt P06493); test: NanoBRET Target Engagement (TE) Intracellular Kinase Assay, CDK1/CCNB1; conditions: NanoBRET TE intracellular kinase assay, 2-hour incubation, read-out: NanoBRET-CDK1/B1 IC50
T1 construct: host or cells: 293T (ATCC CRL-3216) or 293 (ATCC CRL-1573)
T1 sequence (P06493 whole entry, the tested form may be a part): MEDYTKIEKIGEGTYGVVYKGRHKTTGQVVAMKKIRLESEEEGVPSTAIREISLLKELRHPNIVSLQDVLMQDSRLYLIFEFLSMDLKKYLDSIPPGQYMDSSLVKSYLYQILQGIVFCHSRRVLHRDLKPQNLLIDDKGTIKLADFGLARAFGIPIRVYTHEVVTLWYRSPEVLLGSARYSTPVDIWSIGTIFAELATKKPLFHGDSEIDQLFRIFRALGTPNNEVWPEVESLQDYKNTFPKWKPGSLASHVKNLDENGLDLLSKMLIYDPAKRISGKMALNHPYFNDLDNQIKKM
T1 sequence (P14635 whole entry partner, the tested form may be a part): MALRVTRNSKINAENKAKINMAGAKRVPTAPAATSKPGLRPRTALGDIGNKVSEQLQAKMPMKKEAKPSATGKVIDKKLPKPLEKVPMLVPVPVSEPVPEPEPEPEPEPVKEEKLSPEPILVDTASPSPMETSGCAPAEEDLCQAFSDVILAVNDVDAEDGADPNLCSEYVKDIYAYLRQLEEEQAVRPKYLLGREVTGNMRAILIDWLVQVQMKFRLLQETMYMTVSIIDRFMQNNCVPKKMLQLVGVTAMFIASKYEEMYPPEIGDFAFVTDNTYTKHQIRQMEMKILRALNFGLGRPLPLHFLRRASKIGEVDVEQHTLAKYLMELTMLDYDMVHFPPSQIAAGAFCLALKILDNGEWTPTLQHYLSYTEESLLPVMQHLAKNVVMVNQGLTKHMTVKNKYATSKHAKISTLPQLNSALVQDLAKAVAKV
In short: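 IC50 derived by four-parameter logistic fit of DMSO-normalized acceptor/donor (610/450 nm) BRET ratio. Compound and Tracer K-10 were applied together for 2 h at 37° C to 293 or 293T cells transfected 24 h earlier with CDK1-NanoLuc fusion and cyclin B1.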

[2] = target: T2, CDK2-NanoLuc fusion with CCNE1 in 293T or 293 cells (Homo sapiens, UniProt P24941); test: NanoBRET Target Engagement (TE) Intracellular Kinase Assay, CDK2/CCNE1; conditions: NanoBRET TE intracellular kinase assay, 2-hour incubation, read-out: NanoBRET-CDK2/E1 IC50
T2 construct: host or cells: 293T (ATCC CRL-3216) or 293 (ATCC CRL-1573)

[3] = target: T3, CDK4-NanoLuc fusion with CCND1 in 293T or 293 cells (Homo sapiens, UniProt P11802); test: NanoBRET Target Engagement (TE) Intracellular Kinase Assay, CDK4/CCND1; conditions: NanoBRET TE intracellular kinase assay, 2-hour incubation, read-out: NanoBRET-CDK4/D1 IC50
T3 construct: host or cells: 293T (ATCC CRL-3216) or 293 (ATCC CRL-1573)
T3 sequence (P11802 whole entry, the tested form may be a part): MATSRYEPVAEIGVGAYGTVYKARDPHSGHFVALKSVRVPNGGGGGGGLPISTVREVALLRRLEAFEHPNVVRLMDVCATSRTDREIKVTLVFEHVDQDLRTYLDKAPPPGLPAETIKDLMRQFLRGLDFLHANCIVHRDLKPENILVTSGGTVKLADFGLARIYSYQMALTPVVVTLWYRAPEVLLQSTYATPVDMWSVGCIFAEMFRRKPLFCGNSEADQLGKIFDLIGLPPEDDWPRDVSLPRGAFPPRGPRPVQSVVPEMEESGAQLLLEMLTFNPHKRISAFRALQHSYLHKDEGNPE
T3 sequence (P24385 whole entry partner, the tested form may be a part): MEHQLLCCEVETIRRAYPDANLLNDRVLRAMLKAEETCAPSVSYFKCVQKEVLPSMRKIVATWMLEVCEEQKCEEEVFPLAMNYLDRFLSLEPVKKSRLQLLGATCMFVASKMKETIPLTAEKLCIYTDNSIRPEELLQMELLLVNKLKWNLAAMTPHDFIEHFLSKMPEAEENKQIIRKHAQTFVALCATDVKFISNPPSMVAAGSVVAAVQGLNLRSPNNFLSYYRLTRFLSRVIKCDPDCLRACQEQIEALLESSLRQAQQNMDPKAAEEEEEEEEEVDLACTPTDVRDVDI

[4] = tested on: Phospho-Rb Ser807/811 in OVCAR3 cells; test: OVCAR3 Phospho-Rb Ser807/811 HTRF assay; conditions: Homo sapiens, OVCAR3 cells, Phospho-Rb Ser807/811 HTRF, 1 hour incubation, read-out: pRb-OVCAR3 IC50
Procedure: Cells were trypsinized and resuspended in 1 mM hydroxyurea (Sigma; H8627), 90% RPMI and 10% fetal bovine serum. […] Dose response curve normalized to DMSO control was plotted using four-parameter logistic model for IC50 calculation.

| IC50 [1] | IC50 [2] | IC50 [3] | IC50 ([4]; OVCAR-3, 1 h) | Structure (SMILES) | IC50 ([4]; OVCAR-3) |
| --- | --- | --- | --- | --- | --- |
| 337 nM | 10.1 nM | 699 nM | 2680 nM | Cc1ncc(Oc2cccc(O)c2C=O)nc1C(=O)Nc1cc([C@H]2CC[C@@H](OC(=O)NC(C)C)C2)[nH]n1 [Compound 70, (1R,3S)-3-{5-[6-(2-formyl-3-hydroxyphenoxy)-3-methylpyrazine-2-amido]-2H-pyrazol-3-yl}cyclopentyl N-isopropylcarbamate] | – |
| 7.08 nM | 5.47 nM | 6.91 nM | 68.8 nM | CC(C)NC(=O)O[C@@H]1CC[C@H](c2cc(NC(=O)Cc3ccc(C=O)c(O)c3)n[nH]2)C1 [Compound 4, (1R,3S)-3-{5-[2-(4-formyl-3-hydroxyphenyl)acetamido]-2H-pyrazol-3-yl}cyclopentyl N-isopropylcarbamate] | – |
| 4.17 nM | 1.42 nM | 1320 nM | 21.2 nM | COc1cc(O)c(C=O)c(OCC(=O)Nc2cc([C@H]3CC[C@@H](OC(=O)N(C)C(C)C)C3)[nH]n2)c1 [Compound 244, (1R,3S)-3-{5-[2-(2-formyl-3-hydroxy-5-methoxyphenoxy)acetamido]-2H-pyrazol-3-yl}cyclopentyl N-isopropyl-N-methylcarbamate] | – |
| 21.4 nM | 3.14 nM | > 10000 nM | 259 nM | C#Cc1cc(O)c(C=O)c(OCC(=O)Nc2cc([C@H]3CC[C@@H](OC(=O)NC(C)C)C3)[nH]n2)c1 [Compound 99, (1R,3S)-3-(3-(2-(5-ethynyl-2-formyl-3-hydroxyphenoxy)acetamido)-1H-pyrazol-5-yl)cyclopentyl isopropylcarbamate] | – |
| 37.3 nM | 1.86 nM | 9240 nM | 65.8 nM | CC(C)NC(=O)O[C@@H]1CC[C@H](c2cc(NC(=O)COc3cc(OC(C)C)cc(O)c3C=O)n[nH]2)C1 [Compound 250] | – |
| 2.41 nM | 2.23 nM | 484 nM | 17.6 nM | COc1cc(O)c(C=O)c(OCC(=O)Nc2cc([C@H]3CC[C@@H](OC(=O)N4CCCC4(C)C)C3)[nH]n2)c1 [Compound 243] | – |
| 18.6 nM | 7.37 nM | > 10000 nM | 60 nM | COc1cc(O)c(C=O)c(OCC(=O)Nc2cc([C@H]3CC[C@@H](OC(=O)N4C[C@H]5C[C@@H]4CO5)C3)[nH]n2)c1 [Compound 203] | – |
| 36.1 nM | 6.27 nM | 2890 nM | 477 nM | CC(C)NC(=O)O[C@@H]1CC[C@H](c2cc(NC(=O)c3cc(-c4cccc(O)c4C=O)nn3C3CC3)n[nH]2)C1 [Compound 61, (1R,3S)-3-(3-(1-cyclopropyl-3-(2-formyl-3-hydroxyphenyl)-1H-pyrazole-5-carboxamido)-1H-pyrazol-5-yl)cyclopentyl isopropylcarbamate] | – |
| 36 nM | 4.69 nM | > 10000 nM | 149 nM | COc1cc(O)c(C=O)c(OCC(=O)Nc2cc([C@H]3C[C@@H](OC(=O)N4CCCC4)C3)[nH]n2)c1 [Compound 112, (1s,3s)-3-(3-(2-(2-formyl-3-hydroxy-5-methoxyphenoxy)acetamido)-1H-pyrazol-5-yl)cyclobutyl pyrrolidine-1-carboxylate] | – |
| 2.14 nM | 1.89 nM | 846 nM | 13.1 nM | COc1cc(O)c(C=O)c(OCC(=O)Nc2cc([C@H]3CC[C@@H](OC(=O)N4CCC4(C)C)C3)[nH]n2)c1 [Compound 239, (1R,3S)-3-(3-(2-(2-formyl-3-hydroxy-5-methoxyphenoxy)acetamido)-1H-pyrazol-5-yl)cyclopentyl 2,2-dimethylazetidine-1-carboxylate] | – |
| 8.56 nM | 1.71 nM | 5250 nM | 24.1 nM | CCCNC(=O)O[C@@H]1CC[C@H](c2cc(NC(=O)COc3cc(OC)cc(O)c3C=O)n[nH]2)C1 [Compound 221] | – |
| 3.95 nM | 3.12 nM | 723 nM | 25.4 nM | COc1cc(O)c(C=O)c(OCC(=O)Nc2cc([C@H]3CC[C@@H](OC(=O)N4CCC[C@@H]4C)C3)[nH]n2)c1 [Compound 245] | – |
| 21.5 nM | 1.26 nM | > 10000 nM | 115 nM | COc1cccc(OCC(=O)Nc2cc([C@H]3CC[C@@H](OC(=O)NC(C)C)C3)[nH]n2)c1C=O [Compound 95, (1R,3S)-3-{5-[2-(2-formyl-3-methoxyphenoxy)acetamido]-2H-pyrazol-3-yl}cyclopentyl N-isopropylcarbamate; trifluoroacetic acid] | – |
| 11.6 nM | 1.79 nM | 4960 nM | 55.7 nM | COc1cc(O)c(C=O)c(OCC(=O)Nc2cc([C@H]3CC[C@@H](OC(=O)N4CC5CC5C4)C3)[nH]n2)c1 (stereo partly shown) [Compound 237] | – |
| 2.19 nM | 2.47 nM | 2690 nM | 22.1 nM | COc1cc(O)c(C=O)c(OCC(=O)Nc2cc([C@H]3CC[C@@H](OC(=O)N4CC[C@H](F)C4)C3)[nH]n2)c1 [Compound 233] | – |
| 51.2 nM | 27.2 nM | > 10000 nM | 212 nM | CC(C)NC(=O)O[C@@H]1CC[C@H](c2cc(NC(=O)COc3ccc(F)c(O)c3C=O)n[nH]2)C1 [Compound 43, (1R,3S)-3-{5-[2-(4-fluoro-2-formyl-3-hydroxyphenoxy)acetamido]-2H-pyrazol-3-yl}cyclopentyl N-isopropylcarbamate; trifluoroacetic acid] | – |
| 25.2 nM | 3.95 nM | > 10000 nM | 132 nM | COc1cc(O)c(C=O)c(OCC(=O)Nc2cc([C@H]3CC[C@@H](OC(=O)N(C)N(C)C)C3)[nH]n2)c1 [Compound 172, (1R,3S)-3-(3-(2-(2-formyl-3-hydroxy-5-methoxyphenoxy)acetamido)-1H-pyrazol-5-yl)cyclopentyl 1,2,2-trimethylhydrazine-1-carboxylate] | – |
| 3.45 nM | 3.82 nM | 89.5 nM | 68 nM | CC(C)NC(=O)O[C@@H]1CC[C@H](c2cc(NC(=O)c3ccc(C=O)c(O)c3)n[nH]2)C1 [Compound 2, (1R,3S)-3-[5-(4-formyl-3-hydroxybenzamido)-2H-pyrazol-3-yl]cyclopentyl N-isopropylcarbamate; trifluoroacetic acid] | – |
| 8.83 nM | 5.07 nM | 8410 nM | 27.7 nM | COC[C@H](C)NC(=O)O[C@@H]1CC[C@H](c2cc(NC(=O)COc3cc(OC)cc(O)c3C=O)n[nH]2)C1 [Compound 200] | – |

| Structure (SMILES) | IC50 [1] | IC50 [2] | IC50 [3] | IC50 ([4]; OVCAR-3, 1 h) | IC50 ([4]; OVCAR-3) |
| --- | --- | --- | --- | --- | --- |
| CC(C)NC(=O)O[C@@H]1CC[C@H](c2cc(NC(=O)CCc3ccc(O)c(C=O)c3)n[nH]2)C1 [Compound 6, (1R,3S)-3-{5-[3-(3-formyl-4-hydroxyphenyl)propan-amido]-2H-pyrazol-3-yl}cyclopentyl N-isopropylcarbamate; trifluoroacetic acid] | 113 nM | 12.5 nM | 397 nM | – | 618 nM |
| COc1cc(O)c(C=O)c(OCC(=O)Nc2cc([C@H]3CC[C@@H](OC(=O)N4CC5CC(C4)O5)C3)[nH]n2)c1 [Compound 235] | 48.5 nM | 7.6 nM | > 10000 nM | 121 nM | – |
| COc1cc(O)c(C=O)c(OCC(=O)Nc2cc([C@H]3CC[C@@H](OC(=O)N4CC5CC(C5)C4)C3)[nH]n2)c1 [Compound 226] | 9.17 nM | 2.45 nM | 3060 nM | 63.7 nM | – |
